Experimental data from patent US10059689B2, “Substituted heteroaryl compounds and methods of use” (Sunshine Lake Pharma Co., Ltd., priority 2014, dated 2018).

Biological target: T1, FLT3 (h) (Homo sapiens, UniProt P36888)
T1 construct: purchased Millipore UK Ltd (contract assay service)
T1 sequence (P36888 27-993): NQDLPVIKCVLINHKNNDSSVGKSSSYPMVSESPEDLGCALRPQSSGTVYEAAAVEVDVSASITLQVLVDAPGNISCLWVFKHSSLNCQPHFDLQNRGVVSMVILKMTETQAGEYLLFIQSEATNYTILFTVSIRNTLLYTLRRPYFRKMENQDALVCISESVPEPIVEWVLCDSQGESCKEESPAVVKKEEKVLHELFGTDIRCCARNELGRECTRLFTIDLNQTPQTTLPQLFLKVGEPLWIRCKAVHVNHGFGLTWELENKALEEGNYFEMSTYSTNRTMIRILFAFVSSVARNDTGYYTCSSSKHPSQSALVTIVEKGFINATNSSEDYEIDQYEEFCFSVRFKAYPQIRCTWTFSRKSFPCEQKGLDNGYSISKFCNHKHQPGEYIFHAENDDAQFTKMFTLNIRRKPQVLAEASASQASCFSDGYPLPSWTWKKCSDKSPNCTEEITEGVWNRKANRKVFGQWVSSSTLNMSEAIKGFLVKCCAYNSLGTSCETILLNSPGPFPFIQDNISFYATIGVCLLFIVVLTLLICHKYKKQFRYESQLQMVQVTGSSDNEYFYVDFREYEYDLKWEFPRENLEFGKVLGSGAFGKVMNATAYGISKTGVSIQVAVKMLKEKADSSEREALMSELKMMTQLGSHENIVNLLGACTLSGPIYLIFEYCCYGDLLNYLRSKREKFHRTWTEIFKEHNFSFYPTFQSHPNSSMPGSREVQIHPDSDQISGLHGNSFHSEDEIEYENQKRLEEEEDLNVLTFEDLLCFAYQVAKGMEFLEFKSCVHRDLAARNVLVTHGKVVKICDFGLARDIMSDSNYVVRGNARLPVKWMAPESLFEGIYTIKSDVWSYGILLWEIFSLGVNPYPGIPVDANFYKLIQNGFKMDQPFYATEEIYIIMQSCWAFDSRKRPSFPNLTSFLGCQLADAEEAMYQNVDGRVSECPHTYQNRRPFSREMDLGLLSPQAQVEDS
Experiment: FLT3 (h) kinase assay
Format: biochemical
Experimental: Kinase assays can be performed by measurement of incorporation of γ-33P ATP into immobilized myelin basic protein (MBP). High binding white 384 well plates (Greiner) are coated with MBP (Sigma #M-1891) by incubation of 60 μL/well of 20 μg/mL MBP in Tris-buffered saline (TBS; 50 mM Tris pH 8.0, 138 mM NaCl, 2.7 mM KCl) for 24 h at 4° C. Plates are washed 3× with 100 μL TBS. Kinase reactions are carried out in a total volume of 34 μL in kinase buffer (according to the need to make, for example, 5 mM Hepes pH 7.6, 15 mM NaCl, 0.01% bovine gamma globulin (Sigma #I-5506), 10 mM MgCl2, 1 mM DTT, 0.02% TritonX-100). Compound dilutions are performed in DMSO and added to assay wells to a final DMSO concentration of 1%. Each data point is measured in duplicate, and at least two duplicate assays are performed for each individual compound determination. Enzyme is added to final concentrations of 10 nM or 20 nM, for example. A mixture of unlabeled ATP and γ-33P ATP is added to start the reaction (2×10^6 cpm of γ-33P ATP per well (3000 Ci/mmole) and 10 μM unlabeled ATP, typically. The reactions are carried out for 1 h at room temperature with shaking Plates are washed 7× with TBS, followed by the addition of 50 μL/well scintillation fluid (Wallac). Plates are read using a Wallac Trilux counter. This is only one format of such assays; various other formats are possible, as known to one skilled in the art.
The above assay procedure can be used to determine the IC50 for inhibition and/or the inhibition constant, Ki. The IC50 is defined as the concentration of compound required to reduce the enzyme activity by 50% under the condition of the assay. The IC50 value is estimated by preparing a 10 point curve using a ½ log dilution series (for example, a typical curve may be prepared using the following compound concentrations: 3 μM, 1 μM, 0.3 μM, 0.1 μM, 0.03 μM, 0.01 μM, 0.003 μM, 0.001 μM, 0.0003 μM and 0 μM).
FLT3 (h) is incubated with 8 mM MOPS pH 7.0, 0.2 mM EDTA, 50 μM EAIYAAPFAKKK, 10 mM MgAcetate and [γ-^33P-ATP] (specific activity approx. 500 cpm/pmol, concentration as required). The reaction is initiated by the addition of the MgATP mix. After incubation for 40 minutes at room temperature, the reaction is stopped by the addition of 3% phosphoric acid solution. 10 μL of the reaction is then spotted onto a P30 filtermat and washed three times for 5 minutes in 75 mM phosphoric acid and once in methanol prior to drying and scintillation counting.
The kinase assays described herein were performed at Millipore UK Ltd, Dundee Technology Park, Dundee DD2 1SW, UK.

Cc1c2ccc(Nc3ncc(Cl)c(NC4CCN(c5ccc(C#N)nn5)CC4)n3)cc2nn1C [Ex. 12, 6-(4-((5-chloro-2-((2,3-dimethyl-2H-indazol-6-yl)amino)pyrimidin-4-yl)amino)piperidin-1-yl)pyridazine-3-carbonitrile]
IC50: 4 nM

Cc1nn(C)cc1Nc1ncc(Cl)c(NC2CCN(c3ccc(C#N)nn3)CC2)n1 [Ex. 11, 6-(4-((5-chloro-2-((1,3-dimethyl-1H-pyrazol-4-yl)amino)pyrimidin-4-yl)amino)piperidin-1-yl)pyridazine-3-carbonitrile]
IC50: 21 nM

CN(c1nc(Nc2cnn(C)c2)ncc1Cl)C1CCN(c2ccc(C#N)cn2)CC1 [Ex. 5, 6-(4-((5-chloro-2-((1-methyl-1H-pyrazol-4-yl)amino)pyrimidin-4-yl) (methyl)amino)piperidin-1-yl)nicotinonitrile]
IC50: 42 nM

Cc1cc(Nc2ncc(Cl)c(NC3CCN(c4ccc(C#N)nn4)CC3)n2)nn1C [Ex. 13, 6-(4-((5-chloro-2-((1,5-dimethyl-1H-pyrazol-3-yl)amino)pyrimidin-4-yl)amino)piperidin-1-yl)pyridazine-3-carbonitrile]
IC50: 48 nM

Cc1nn(C)cc1Nc1ncc(Cl)c(NC2CCN(c3ccc(C#N)cn3)CC2)n1 [Ex. 10, 6-(4-((5-chloro-2-((1,3-dimethyl-1H-pyrazol-4-yl)amino)pyrimidin-4-yl)amino)piperidin-1-yl)nicotinonitrile]
IC50: 9 nM

Cc1c2ccc(Nc3ncc(Cl)c(NC4CCN(c5ccc(C#N)cn5)CC4)n3)cc2nn1C [Ex. 4]
IC50: 151 nM

Cn1cc(Nc2ncc(Cl)c(NC3CCN(c4ccc(C#N)cn4)CC3)n2)cn1 [Ex. 1, 6-(4-((5-chloro-2-((1-methyl-1H-pyrazol-4-yl)amino)pyrimidin-4-yl)amino)piperidin-1-yl)nicotinonitrile]
IC50: 6 nM
